≈ marks a conversion by molar mass, not a printed value. Where “and” joins values, the source holds several entries; their conditions need not be identical. Identical values can stand only once. Like-named read-outs stand apart in the source and are kept apart here.
What was measured:
[1] = test system: methicillin-susceptible and -resistant Staphylococcus aureus, methicillin-resistant Staphylococcus epidermidis and S. pneumoniae; settings: previous studies; cited from earlier work
[2] = test system: pneumococci (5 quinolone susceptible and 1 resistant strains); test: Post-antibiotic effect (PAE) testing; format: cell-based, Streptococcus pneumoniae
Summary of the method: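 Pneumococci (~5×10^6 cfu/ml) in MHB with 5% lysed horse blood were exposed 1 h at 35 °C, the quinolone-resistant strain at 5×MIC, then diluted 1:1000. Viable counts every 2 h until McFarland #1 turbidity. PAE = T − C, the 1 log10 regrowth time versus untreated control; mean of two assays ±SD.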

[3] = test system: quinolone resistant pneumococci; test: Determination of efflux mechanism: MICs in the presence and absence of reserpine; format: cell-based, Streptococcus pneumoniae
Description: MICs were determined in the presence and absence of 10 μg/ml of reserpine (Sigma Chemicals, St. Louis, Mo.) as known in the art.
MICs were determined in the presence and absence of […] of reserpine (Sigma Chemicals, St. Louis, Mo., USA) as described previously (Brenwald, et al., Antimicrob. Agents Chemother. 42:2039-2035, 1998 and Davies, et al., Antimicrob. Agents Chemother. 43:1177-1182S, 1999).

pneumococcal strains = test: Microbroth dilution MICs of strains tested by time-kill and PAE; format: cell-based; settings: Streptococcus pneumoniae
Summary of the method: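 Broth MICs per NCCLS in cation-adjusted Mueller-Hinton broth with 5% lysed defibrinated horse blood. Used for 12 time-kill and 6 PAE strains. S. pneumoniae ATCC 49619 run as quality control.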

[4] = test system: pneumococci with ciprofloxacin MICs ≧8 μg/ml; test: Quinolone agar dilution MICs of 28 ciprofloxacin resistant pneumococcal strains, correlated with QRDR mutations; format: cell-based, Streptococcus pneumoniae
Summary of the method: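 Agar dilution MICs on Mueller-Hinton agar with 5% sheep blood, S. pneumoniae ATCC 49619 as QC in each run. Strains, from the US and several other countries, were also typed for parC, gyrA, parE and gyrB mutations and for efflux.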

For `CO/N=C1\CN(c2nc3c(cc2F)c(=O)c(C(=O)O)cn3C2CC2)CC1CN` (racemic) [Gemifloxacin, (R,S)-7-(3-aminomethyl-4-methoxyiminopyrrolidin-1-yl)-1-cyclopropyl-6-fluoro-4-oxo-1,4-dihydro-1,8-naphthyridine-3-carboxylic acid], the “fold more active than ciprofloxacin, ofloxacin, sparfloxacin and trovafloxacin” value [1] is given as 32 to 64 fold and 32-64 fold, the PAE ([2]; 5×MIC, quinolone resistant strain) is given as 0.9 h and the PAE ([2]; 10×MIC for 1 h, range over 5 quinolone susceptible strains) is given as 0.4 to 1.6 h. The “lower MICs in the presence of reserpine, fold range over affected strains” value ([3]; 28 quinolone resistant strains, 10 μg/ml reserpine) was 2-4 ×, the “number of strains with lower MICs in the presence of reserpine” value ([3]; of 28 quinolone resistant strains, 10 μg/ml reserpine) was 13 strains and the “Number of dilutions decrease after incubation with reserpine” value (“Number of dilutions decrease” for short) ([3]; strain 1) was 2X^a. The “lower MIC in the presence of reserpine (efflux mechanism)” value (shortened to “lower MIC in the presence of reserpine”) ([3]; strain 1, 10 μg/ml reserpine) was 2X^a, the “Number of dilutions decrease” value ([3]; strain 5) was 2X and the “lower MIC in the presence of reserpine” value ([3]; strain 5, 10 μg/ml reserpine) was 2X. For the same molecule, the “Number of dilutions decrease” value ([3]; strain 7) was 2X, the “lower MIC in the presence of reserpine” value ([3]; strain 7, 10 μg/ml reserpine) was 2X and the “Number of dilutions decrease” value ([3]; strain 8) was 2X. For the same molecule, the “lower MIC in the presence of reserpine” value ([3]; strain 8, 10 μg/ml reserpine) was 2X, the “Number of dilutions decrease” value ([3]; strain 9) was 4X and the “lower MIC in the presence of reserpine” value ([3]; strain 9, 10 μg/ml reserpine) was 4X. The “Number of dilutions decrease” value ([3]; strain 11) was 2X, the “lower MIC in the presence of reserpine” value ([3]; strain 11, 10 μg/ml reserpine) was 2X and the “Number of dilutions decrease” value ([3]; strain 12) was 2X. For the same molecule, the “lower MIC in the presence of reserpine” value ([3]; strain 12, 10 μg/ml reserpine) was 2X, the “Number of dilutions decrease” value ([3]; strain 16) was 2X and the “lower MIC in the presence of reserpine” value ([3]; strain 16, 10 μg/ml reserpine) was 2X. The “Number of dilutions decrease” value ([3]; strain 17) was 2X, the “lower MIC in the presence of reserpine” value ([3]; strain 17, 10 μg/ml reserpine) was 2X and the “Number of dilutions decrease” value ([3]; strain 23) was 2X. For the same molecule, the “lower MIC in the presence of reserpine” value ([3]; strain 23, 10 μg/ml reserpine) was 2X, the “Number of dilutions decrease” value ([3]; strain 25) was 2x X and the “lower MIC in the presence of reserpine” value ([3]; strain 25, 10 μg/ml reserpine) was 2x X. The “Number of dilutions decrease” value ([3]; strain 26) was 2x X, the “lower MIC in the presence of reserpine” value ([3]; strain 26, 10 μg/ml reserpine) was 2x X and the “Number of dilutions decrease” value ([3]; strain 28) was 4x X. The “lower MIC in the presence of reserpine” value ([3]; strain 28, 10 μg/ml reserpine) was 4x X, the MIC (pneumococcal strains; broth MIC, quinolone resistant PAE strain, read-out: MIC against the quinolone resistant strain tested for PAE) was 0.25 µg/mL (≈ 0.642 µM) and the MIC (pneumococcal strains; strain 1 (S) penicillin susceptible, read-out: Microdilution MIC) was 0.016 µg/mL (≈ 0.0411 µM). It also gave an MIC (pneumococcal strains; strain 2 (S) penicillin susceptible, read-out: Microdilution MIC) of 0.016 µg/mL (≈ 0.0411 µM), an MIC (pneumococcal strains; strain 3 (S) penicillin susceptible, quinolone-resistant, read-out: Microdilution MIC) of 0.5 µg/mL (≈ 1.28 µM) and an MIC (pneumococcal strains; strain 4 (S) penicillin susceptible, quinolone-resistant, read-out: Microdilution MIC) of 0.25 µg/mL (≈ 0.642 µM). The MIC (pneumococcal strains; strain 5 (I) penicillin intermediate, read-out: Microdilution MIC) was 0.03 µg/mL (≈ 0.077 µM), the MIC (pneumococcal strains; strain 6 (I) penicillin intermediate, read-out: Microdilution MIC) was 0.016 µg/mL (≈ 0.0411 µM) and the MIC (pneumococcal strains; strain 7 (I) penicillin intermediate, read-out: Microdilution MIC) was 0.016 µg/mL (≈ 0.0411 µM). The MIC (pneumococcal strains; strain 8 (I) penicillin intermediate, read-out: Microdilution MIC) was 0.016 µg/mL (≈ 0.0411 µM), the MIC (pneumococcal strains; strain 9 (R) penicillin resistant, read-out: Microdilution MIC) was 0.03 µg/mL (≈ 0.077 µM) and the MIC (pneumococcal strains; strain 10 (I), read-out: Microdilution MIC) was 0.016 µg/mL (≈ 0.0411 µM). It also gave an MIC (pneumococcal strains; strain 11 (R) penicillin resistant, read-out: Microdilution MIC) of 0.016 µg/mL (≈ 0.0411 µM), an MIC (pneumococcal strains; strain 12 (R) penicillin resistant, read-out: Microdilution MIC) of 0.03 µg/mL (≈ 0.077 µM) and an MIC50 ([4]; Streptococcus pneumoniae) of 0.25 µg/mL (≈ 0.642 µM). The MIC90 ([4]; Streptococcus pneumoniae) was 0.5 µg/mL (≈ 1.28 µM), the MIC ([4]; Streptococcus pneumoniae, read-out: MICs in strains with three or four QRDR mutations, 20 strains, bound holds in all 20 (ciprofloxacin, levofloxacin, sparfloxacin), 19 (grepafloxacin), 10 (trovafloxacin), 18 (gemifloxacin)) was under 0.5 µg/mL and the MIC ([4]; Streptococcus pneumoniae, read-out: MICs in strains with three or four QRDR mutations, 21 strains, bound holds in all 21 (ciprofloxacin, levofloxacin, sparfloxacin), 20 (grepafloxacin), 11 (trovafloxacin), 19 (gemifloxacin)) was at most 0.5 µg/mL. It also gave an MIC ([4]; Streptococcus pneumoniae, strain 2, ParC S79-Y, ParE I460-V, GyrA None, GyrB None) of 0.06 µg/mL (≈ 0.154 µM), an MIC ([4]; Streptococcus pneumoniae, strain 3, ParC D83-N, ParE I460-V, GyrA S81-F, GyrB None) of 0.06 µg/mL (≈ 0.154 µM) and an MIC ([4]; Streptococcus pneumoniae, strain 3, ParC D83-N, ParE I460-V, GyrA S83-F, GyrB None) of 0.06 µg/mL (≈ 0.154 µM). The MIC ([4]; Streptococcus pneumoniae, strain 4, ParC S79-F, ParE I460-V, GyrA S81-F, GyrB None) was 0.06 µg/mL (≈ 0.154 µM), the MIC ([4]; Streptococcus pneumoniae, strain 4, ParC S79-F, ParE I460-V, GyrA S83-F, GyrB None) was 0.06 µg/mL (≈ 0.154 µM) and the MIC ([4]; Streptococcus pneumoniae, strain 5, ParC R95-C, ParE D435-N, GyrA S81-F, GyrB None) was 0.125 µg/mL (≈ 0.321 µM). For the same molecule, the MIC ([4]; Streptococcus pneumoniae, strain 5, ParC R95-C, ParE D435-N, GyrA S83-F, GyrB None) was 0.125 µg/mL (≈ 0.321 µM), the MIC ([4]; Streptococcus pneumoniae, strain 6, ParC S79-Y, ParE I460-V, GyrA E85-K, GyrB None) was 0.125 µg/mL (≈ 0.321 µM) and the MIC ([4]; Streptococcus pneumoniae, strain 6, ParC S79-Y, ParE I460-V, GyrA E87-K, GyrB None) was 0.125 µg/mL (≈ 0.321 µM). It also gave an MIC ([4]; Streptococcus pneumoniae, strain 7, ParC None, ParE I460-V, GyrA None, GyrB None) of 0.125 µg/mL (≈ 0.321 µM), an MIC ([4]; Streptococcus pneumoniae, strain 8, ParC S79-Y, ParE None, GyrA None, GyrB None) of 0.125 µg/mL (≈ 0.321 µM) and an MIC ([4]; Streptococcus pneumoniae, strain 9, ParC S79-Y, ParE None, GyrA None, GyrB None) of 0.125 µg/mL (≈ 0.321 µM). For the same molecule, the MIC ([4]; Streptococcus pneumoniae, strain 10, ParC S79-F, ParE I460-V, GyrA S81-C, GyrB None) was 0.125 µg/mL (≈ 0.321 µM), the MIC ([4]; Streptococcus pneumoniae, strain 10, ParC S79-F, ParE I460-V, GyrA S83-C, GyrB None) was 0.125 µg/mL (≈ 0.321 µM) and the MIC ([4]; Streptococcus pneumoniae, strain 11, ParC S79-F, ParE I460-V, GyrA S81-F, GyrB None) was 0.125 µg/mL (≈ 0.321 µM). For the same molecule, the MIC ([4]; Streptococcus pneumoniae, strain 11, ParC S79-F, ParE I460-V, GyrA S83-F, GyrB None) was 0.125 µg/mL (≈ 0.321 µM), the MIC ([4]; Streptococcus pneumoniae, strain 12, ParC S79-F, ParE I460-V, GyrA None, GyrB D435-N) was 0.125 µg/mL (≈ 0.321 µM) and the MIC ([4]; Streptococcus pneumoniae, strain 27, ParC S79-Y, ParE I460-V, GyrA S81-F, GyrB None) was 1 µg/mL (≈ 2.57 µM). The MIC ([4]; Streptococcus pneumoniae, strain 27, ParC S79-Y, ParE I460-V, GyrA S83-F, GyrB None) was 1 µg/mL (≈ 2.57 µM), the MIC ([4]; Streptococcus pneumoniae, strain 28, ParC D83-G N91-D, ParE None, GyrA S81-F S114-G, GyrB None) was 1 µg/mL (≈ 2.57 µM) and the MIC ([4]; Streptococcus pneumoniae, strain 28, ParC cell empty, ParE None, GyrA S83-F and S116-G, GyrB None) was 1 µg/mL (≈ 2.57 µM). The MIC Range ([4]; agar dilution, 28 strains with ciprofloxacin MICs ≧8.0 μg/ml) was 0.03 to 1.0 µg/mL.

— patent US20040044006A1, “Methods of use of quinolone compounds against pneumococcal and haemophilus bacteria” (priority 1999, published 2004)
